Measurements published in US11207310B2 (PRILENIA NEUROTHERAPEUTICS LTD., priority 2016, dated 2021).
Like-named read-outs stand apart in the source and are kept apart here.

System: patients with HD
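Note: UHDRS Total Functional Capacity items for finances and ADL, each scored 0 to 3, where 3 means normal function and 0 means unable (finances) or total care (ADL).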

CCCN1CCC(c2cccc(S(C)(=O)=O)c2)CC1 [pridopidine, 4-[3-(methylsulfonyl)phenyl]-1-propyl-piperidine]
Change from baseline in UHDRS TFC Finance ADL, Δ to placebo (45 mg bid, Week 26, ALL): 0.22 | UHDRS TFC Finance ADL, change from baseline, Δ to placebo (45 mg bid, Week 26, BL TFC<7, p value 0.3239): −0.34 | UHDRS TFC Finance ADL, change from baseline, Δ to placebo (45 mg bid, Week 26, BL TFC≥7, p value 0.0114): 0.46 | Change from baseline in UHDRS TFC Finance ADL, Δ to placebo (45 mg bid, Week 26, Stage 1 BL TFC 11-13): 0.92 | Change from baseline in UHDRS TFC Finance ADL, Δ to placebo (45 mg bid, Week 26, Stage 2 BL TFC 7-10 (FIG. 11c)): 0.33 | Change from baseline in UHDRS TFC Finance ADL, Δ to placebo (45 mg bid, Week 26, Stage 2 BL TFC 7-10 (FIG. 11f)): 0.7 | Change from baseline in UHDRS TFC Finance ADL, Δ to placebo (45 mg bid, Week 52, ALL): 0.46 | UHDRS TFC Finance ADL, change from baseline, Δ to placebo (45 mg bid, Week 52, BL TFC<7, p value 0.9863): 0.01 | UHDRS TFC Finance ADL, change from baseline, Δ to placebo (45 mg bid, Week 52, BL TFC≥7, p value 0.0004): 0.72 | Change from baseline in UHDRS TFC Finance ADL, Δ to placebo (45 mg bid, Week 52, Stage 1 BL TFC 11-13): 0.77 | Δ to placebo: UHDRS TFC Finance and ADL score, change from baseline (67.5 mg bid, BL CAG Repeat >44, week 26): 0.21 | Δ to placebo: UHDRS TFC Finance and ADL score, change from baseline (67.5 mg bid, BL TFC≥9, week 26): 0.23 | Δ to placebo: UHDRS TFC Finance and ADL score, change from baseline (67.5 mg bid, BL TFC≥9 and BL TMS 1st 3 Qs, week 26): 0.18 | Δ to placebo: UHDRS TFC Finance and ADL score, change from baseline (67.5 mg bid, BL TFC≥9 and CAG Repeat >44, week 26): 0.57 | Δ to placebo: UHDRS TFC Finance and ADL score, change from baseline (67.5 mg bid, BL TFC≥9 and CAG Repeats <44 and BL TMS 1st 3 Qs, week 26): 0.57 | Δ to placebo: UHDRS TFC Finance and ADL score, change from baseline (67.5 mg bid, BL TFC≥9 or CAG Repeat >44, week 26): 0.08 | Δ to placebo: UHDRS TFC Finance and ADL score, change from baseline (67.5 mg bid, CAG Repeats <44 and BL TMS 1st 3 Qs, week 26): 0.18 | Δ to placebo: UHDRS TFC Finance and ADL score, change from baseline (67.5 mg bid, TMS 1st 2Qs, week 26): 0.1 | Δ to placebo: UHDRS TFC Finance and ADL score, change from baseline (67.5 mg bid, TMS 1st 2Qs, week 52): 0.25 | Δ to placebo: UHDRS TFC Finance and ADL score, change from baseline (67.5 mg bid, TMS 1st 3Qs, week 26): 0.04 | Δ to placebo: UHDRS TFC Finance and ADL score, change from baseline (67.5 mg bid, TMS 1st 3Qs, week 52): −0.03 | Δ to placebo: UHDRS TFC Finance and ADL score, change from baseline (67.5 mg bid, TMS 1st Q, week 26): 0.5 | Δ to placebo: UHDRS TFC Finance and ADL score, change from baseline (67.5 mg bid, TMS 1st Q, week 52): 0.61 | Change from baseline in UHDRS TFC Finance ADL, Δ to placebo (67.5 mg bid, Week 26, ALL): 0.16 | UHDRS TFC Finance ADL, change from baseline, Δ to placebo (67.5 mg bid, Week 26, BL TFC<7, p value 0.8408): −0.06 | UHDRS TFC Finance ADL, change from baseline, Δ to placebo (67.5 mg bid, Week 26, BL TFC≥7, p value 0.0817): 0.32 | Change from baseline in UHDRS TFC Finance ADL, Δ to placebo (67.5 mg bid, Week 26, Stage 1 BL TFC 11-13): 0.65 | Change from baseline in UHDRS TFC Finance ADL, Δ to placebo (67.5 mg bid, Week 26, Stage 2 BL TFC 7-10 (FIG. 11c)): 0.26 | Change from baseline in UHDRS TFC Finance ADL, Δ to placebo (67.5 mg bid, Week 26, Stage 2 BL TFC 7-10 (FIG. 11f)): 0.54 | Change from baseline in UHDRS TFC Finance ADL, Δ to placebo (67.5 mg bid, Week 52, ALL): 0.1 | UHDRS TFC Finance ADL, change from baseline, Δ to placebo (67.5 mg bid, Week 52, BL TFC<7, p value 0.497): −0.25 | UHDRS TFC Finance ADL, change from baseline, Δ to placebo (67.5 mg bid, Week 52, BL TFC≥7, p value 0.1926): 0.27 | Change from baseline in UHDRS TFC Finance ADL, Δ to placebo (67.5 mg bid, Week 52, Stage 1 BL TFC 11-13): −0.18 | Δ to placebo: UHDRS TFC Finance and ADL score, change from baseline (90 mg bid, BL CAG Repeat >44, week 26): 0.67 | Δ to placebo: UHDRS TFC Finance and ADL score, change from baseline (90 mg bid, BL TFC≥9, week 26): 0.51 | Δ to placebo: UHDRS TFC Finance and ADL score, change from baseline (90 mg bid, BL TFC≥9 and BL TMS 1st 3 Qs, week 26): 0.45 | Δ to placebo: UHDRS TFC Finance and ADL score, change from baseline (90 mg bid, BL TFC≥9 and CAG Repeat >44, week 26): 0.83 | Δ to placebo: UHDRS TFC Finance and ADL score, change from baseline (90 mg bid, BL TFC≥9 and CAG Repeats <44 and BL TMS 1st 3 Qs, week 26): 0.81 | Δ to placebo: UHDRS TFC Finance and ADL score, change from baseline (90 mg bid, BL TFC≥9 or CAG Repeat >44, week 26): 0.52 | Δ to placebo: UHDRS TFC Finance and ADL score, change from baseline (90 mg bid, CAG Repeats <44 and BL TMS 1st 3 Qs, week 26): 0.6 | Δ to placebo: UHDRS TFC Finance and ADL score, change from baseline (90 mg bid, TMS 1st 2Qs, week 26): 0.26 | Δ to placebo: UHDRS TFC Finance and ADL score, change from baseline (90 mg bid, TMS 1st 2Qs, week 52): 0.47 | Δ to placebo: UHDRS TFC Finance and ADL score, change from baseline (90 mg bid, TMS 1st 3Qs, week 26): 0.35 | Δ to placebo: UHDRS TFC Finance and ADL score, change from baseline (90 mg bid, TMS 1st 3Qs, week 52): 0.21 | Δ to placebo: UHDRS TFC Finance and ADL score, change from baseline (90 mg bid, TMS 1st Q, week 26): 0.63 | Δ to placebo: UHDRS TFC Finance and ADL score, change from baseline (90 mg bid, TMS 1st Q, week 52): 0.57 | Change from baseline in UHDRS TFC Finance ADL, Δ to placebo (90 mg bid, Week 26, ALL): 0.31 | UHDRS TFC Finance ADL, change from baseline, Δ to placebo (90 mg bid, Week 26, BL TFC<7, p value 0.3747): 0.28 | UHDRS TFC Finance ADL, change from baseline, Δ to placebo (90 mg bid, Week 26, BL TFC≥7, p value 0.0093): 0.47 | Change from baseline in UHDRS TFC Finance ADL, Δ to placebo (90 mg bid, Week 26, Stage 1 BL TFC 11-13): 0.97 | Change from baseline in UHDRS TFC Finance ADL, Δ to placebo (90 mg bid, Week 26, Stage 2 BL TFC 7-10 (FIG. 11c)): 0.3 | Change from baseline in UHDRS TFC Finance ADL, Δ to placebo (90 mg bid, Week 26, Stage 2 BL TFC 7-10 (FIG. 11f)): 0.56 | Change from baseline in UHDRS TFC Finance ADL, Δ to placebo (90 mg bid, Week 52, ALL): 0.17 | UHDRS TFC Finance ADL, change from baseline, Δ to placebo (90 mg bid, Week 52, BL TFC<7, p value 0.4368): −0.29 | UHDRS TFC Finance ADL, change from baseline, Δ to placebo (90 mg bid, Week 52, BL TFC≥7, p value 0.0088): 0.53 | Change from baseline in UHDRS TFC Finance ADL, Δ to placebo (90 mg bid, Week 52, Stage 1 BL TFC 11-13): 0.4 | Δ to placebo: UHDRS TFC Finance and ADL score, change from baseline (112.5 mg bid, BL CAG Repeat >44, week 26): 0.47 | Δ to placebo: UHDRS TFC Finance and ADL score, change from baseline (112.5 mg bid, BL TFC≥9, week 26): 0.57 | Δ to placebo: UHDRS TFC Finance and ADL score, change from baseline (112.5 mg bid, BL TFC≥9 and BL TMS 1st 3 Qs, week 26): 0.54 | Δ to placebo: UHDRS TFC Finance and ADL score, change from baseline (112.5 mg bid, BL TFC≥9 and CAG Repeat >44, week 26): 1.02 | Δ to placebo: UHDRS TFC Finance and ADL score, change from baseline (112.5 mg bid, BL TFC≥9 and CAG Repeats <44 and BL TMS 1st 3 Qs, week 26): 1.08 | Δ to placebo: UHDRS TFC Finance and ADL score, change from baseline (112.5 mg bid, BL TFC≥9 or CAG Repeat >44, week 26): 0.4 | Δ to placebo: UHDRS TFC Finance and ADL score, change from baseline (112.5 mg bid, CAG Repeats <44 and BL TMS 1st 3 Qs, week 26): 0.57 | Δ to placebo: UHDRS TFC Finance and ADL score, change from baseline (112.5 mg bid, TMS 1st 2Qs, week 26): 0.19 | Δ to placebo: UHDRS TFC Finance and ADL score, change from baseline (112.5 mg bid, TMS 1st 2Qs, week 52): 0.44 | Δ to placebo: UHDRS TFC Finance and ADL score, change from baseline (112.5 mg bid, TMS 1st 3Qs, week 26): 0.41 | Δ to placebo: UHDRS TFC Finance and ADL score, change from baseline (112.5 mg bid, TMS 1st 3Qs, week 52): 0.09 | Δ to placebo: UHDRS TFC Finance and ADL score, change from baseline (112.5 mg bid, TMS 1st Q, week 26): 1.1 | Δ to placebo: UHDRS TFC Finance and ADL score, change from baseline (112.5 mg bid, TMS 1st Q, week 52): 0.74 | Change from baseline in UHDRS TFC Finance ADL, Δ to placebo (112.5 mg bid, Week 26, ALL): 0.38 | UHDRS TFC Finance ADL, change from baseline, Δ to placebo (112.5 mg bid, Week 26, BL TFC<7, p value 0.9361): 0.03 | UHDRS TFC Finance ADL, change from baseline, Δ to placebo (112.5 mg bid, Week 26, BL TFC≥7, p value 0.0007): 0.62 | Change from baseline in UHDRS TFC Finance ADL, Δ to placebo (112.5 mg bid, Week 26, Stage 1 BL TFC 11-13): 1.12 | Change from baseline in UHDRS TFC Finance ADL, Δ to placebo (112.5 mg bid, Week 26, Stage 2 BL TFC 7-10 (FIG. 11c)): 0.46 | Change from baseline in UHDRS TFC Finance ADL, Δ to placebo (112.5 mg bid, Week 26, Stage 2 BL TFC 7-10 (FIG. 11f)): 0.18 | Change from baseline in UHDRS TFC Finance ADL, Δ to placebo (112.5 mg bid, Week 52, ALL): 0.1 | UHDRS TFC Finance ADL, change from baseline, Δ to placebo (112.5 mg bid, Week 52, BL TFC<7, p value 0.5626): −0.22 | UHDRS TFC Finance ADL, change from baseline, Δ to placebo (112.5 mg bid, Week 52, BL TFC≥7, p value 0.0841): 0.36 | Change from baseline in UHDRS TFC Finance ADL, Δ to placebo (112.5 mg bid, Week 52, Stage 1 BL TFC 11-13): 0.64
